Source: patent US7304083B2, “2-iminoimidazole derivatives (2)” (Eisai R&D Management Co., Ltd., priority 2001, dated 2007)
Where a name gives a salt, the structure may show the parent alone.

Experiments:
PAR1 thrombin receptor = target: T1, PAR1 thrombin receptor (Homo sapiens, UniProt P25116); assay: Receptor binding assay ([3H] high affinity TRAP, platelet membrane); details: 25 nM [3H] high affinity TRAP, 37° C. for 1 hour, read-out: RBA IC50
T1 construct: centrifuged at 40,000 g for 60 minutes to yield platelet membrane; from tissue; host or cells: platelet membrane prepared from platelet rich plasma of a healthy adult donor
T1 sequence (P25116 22-425): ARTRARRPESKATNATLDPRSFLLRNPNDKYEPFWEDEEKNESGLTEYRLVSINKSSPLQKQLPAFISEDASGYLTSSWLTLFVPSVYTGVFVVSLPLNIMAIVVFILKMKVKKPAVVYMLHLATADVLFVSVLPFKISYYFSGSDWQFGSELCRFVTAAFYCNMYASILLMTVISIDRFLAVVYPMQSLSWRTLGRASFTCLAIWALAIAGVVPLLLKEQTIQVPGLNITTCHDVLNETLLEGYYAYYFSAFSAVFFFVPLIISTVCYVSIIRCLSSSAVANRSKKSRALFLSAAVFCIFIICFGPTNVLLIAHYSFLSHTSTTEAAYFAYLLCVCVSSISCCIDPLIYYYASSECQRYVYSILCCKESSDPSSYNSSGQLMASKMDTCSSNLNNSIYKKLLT
Method: Blood was sampled from a healthy adult who had taken no drugs for one week, and 3.8% citric acid (a ratio of 1:9 with respect to the blood) was added as an anticoagulant. The mixture was then centrifuged at 100 g for 10 minutes at room temperature to yield platelet rich plasma (PRP). The platelet precipitate obtained by centrifuging the PRP was homogenized with a Dounce homogenizer, and then centrifuged at 40,000 g for 60 minutes to yield platelet membrane. The platelet membrane was suspended in a solution prepared by adding DMSO (dimethyl sulfoxide) at 1% concentration to Buffer 1: a 50 mM Tris-HCl buffer containing 10 mM MgCl2 and 1 mM EGTA (ethylene glycol tetraacetic acid), and the suspension was stored at −80° C. Bovine albumin and DMSO were added to Buffer 1 at 0.1% and 20%, respectively, to make a preparation solution for the test compound. […] Next, 30 μl of liquid scintillator was added for measurement of the radioactivity of the plate using a Top Counter (Packard), the value of the radioactivity in the presence of the test compound minus non-specific binding portion was divided by the specific binding value (the value of the binding in the absence of the compound minus the non-specific binding portion) to determine the binding ratio, from which the IC50 value was calculated. […]

[1] = test system: Vascular smooth muscle cells (rSMC); assay: Rat smooth muscle cell proliferation assay (thrombin-stimulated, MTT); format: cell-based; details: 48 h; male SD rat aorta rSMC, thrombin 0.1 unit/ml, 2 days, MTT OD 590 nm; read-out: Rat SMC IC50
Method: [Rat Smooth Muscle Cell Proliferation Assay]
Vascular smooth muscle cells (rSMC) were isolated from male SD rat aorta by the explant method. DMEM medium (Sigma) containing 10% fetal bovine serum (GibcoBRL), streptomycin and penicillin was used as the proliferation medium, and subculture was carried out at 37° C. in the presence of 5% CO2. Culture was initiated after adding 100 μl of rSMC suspension in proliferation medium at a concentration of 1×10^4 cells/ml, to a 96-well plate. After 3 days, cells were rinsed twice with 100 μl of DMEM medium, the medium was exchanged with 100 μl of DMEM medium containing 0.1% albumin (starvation medium), and serum starvation was initiated. […]
Upon adding 20 μl of MTT (3-[4,5-dimethylthiazol-2-yl]-2,5-diphenyltetrazolium bromide) dissolved in DPBS to 7.5 mg/ml, incubation was continued for 4 hours. […] As an index of cell proliferation, the OD 590 nm was measured using a plate reader (EL340, BIO-TEK Instruments Inc.), and the control OD value (OD value in the absence of the test compound) minus the OD value in the presence of the test compound was divided by the control OD value minus the blank OD value (OD value without thrombin stimulation) to determine the inhibition ratio, from which the IC50 value was calculated.

[2] = test system: platelet rich plasma (PRP); assay: Inhibitory effects on platelet aggregation using platelet rich plasma (thrombin-induced); format: cell-based; details: Homo sapiens, 0.1 h, aggregation initiated with thrombin 0.5–1.5 units/ml, area under aggregation curve over 6 minutes, read-out: Thr IC50
Method: [Inhibitory Effects on Platelet Aggregation Using Platelet Rich Plasma]
Blood was sampled from a healthy adult who had taken no drugs for one week, and 3.8% citric acid (a ratio of 1:9 with respect to the blood) was added as an anticoagulant. The mixture was then centrifuged at 100 g for 10 minutes at room temperature to yield platelet rich plasma (PRP). The PRP-removed blood was further centrifuged at 1000 g for 10 minutes to yield platelet poor plasma (PPP). The number of platelet was counted using a multi-parameter automatic hemocyte counter (K4500, Sysmex), and the PRP was diluted to approximately 300,000/μl with the PPP. The platelet aggregation activity was determined in the following manner using an Aggregometer (MC Medical). […] After addition of thrombin, the aggregation reaction was examined for 6 minutes and the areas under the aggregation curves were compared to determine the inhibition ratio, from which the IC50 value was calculated.

Row | SMILES | IC50 (PAR1 thrombin receptor) [nM] | IC50 [1] [nM] | IC50 [2] [nM]
1 | CCC(CC)CCn1ccn(CC(=O)c2cc(C(C)(C)C)c(O)c(C(C)(C)C)c2)c1=N [Example 1, 1-(3,5-Di-tert-butyl-4-hydroxy-phenyl)-2-[3-(3-ethyl-pentyl)-2-imino-2,3-dihydro-imidazol-1-yl]-ethanone hydrobromide] | 74 | 300 | 540
2 | CC(C)(C)c1cc(C(=O)Cn2ccn(Cc3ccccc3)c2=N)cc(C(C)(C)C)c1O [Example 2, 2-(3-Benzyl-2-imino-2,3-dihydro-imidazol-1-yl)-1-(3,5-di-tert-butyl-4-hydroxy-phenyl)-ethanone hydrobromide] | 250 | 960 | 2400
